This is an account of results in US5185338A, “Medicament for treating cerebral insufficiency diseases, novel 2-(1-piperazinyl)-4-phenylcycloalkanopyrimidine derivatives, and process for the production thereof” (Dainippon Pharmaceutical Co., Ltd., priority 1989, dated 1993).

Like-named read-outs stand apart in the source and are kept apart here.

For data set [1] the following is noted: Chem. Pharm. Bull., 31, 2254-2261 (1983); cited from earlier work.
The conditions of data set [2]: U.S. Pat. No. 3,915,976; U.S. Pat. No. 3,305,553; cited from earlier work.
In data set [3] the test system is cycloheximide-induced amnesia of passive avoidance response. The experiment in a line: Improving effect on cycloheximide-induced amnesia of passive avoidance response. The data set is classed as in vivo, mice (Std-ddY strain). Conditions: cycloheximide 60 mg/kg s.c., retention trial at 24 hours, non-dosed animals=100%. The text has this:
Improving effect on cycloheximide-induced amnesia of passive avoidance response:
Anti-amnesic effect of the test compounds was examined using mice given cycloheximide which is a known amnesia-inducing agent.
A group of 15-20 male mice (Std-ddY strain, 27-33 g) was subjected to training and retention trials for a passive avoidance task in a step-down apparatus (30×30×50 cm) with a grid floor and a wooden platform (4×4×4 cm) in a center of the floor. In the training trial, each mouse was first placed on the platform, and when the mouse stepped down on the grid floor, an electric shock (1 Hz, 0.5 sec, 60 VDC) was delivered to the feet for 15 seconds. Immediately after the training trial, cycloheximide (60 mg/kg, s.c.) and a test compound (i.p.) were administered. The retention trial was carried out 24 hours thereafter, and the time from placing again each mouse on the platform until stepping down on the grid floor (step-down latency) was measured. The step-down latency in the retention trial was markedly shortened by treatment of cycloheximide (amnesia). The effect of test compounds was assessed by % improvement (complete improvement to the latency level of non-dosed animals=100%).

In data set [4] the target is T1, serotonin (S2) receptor (Rattus norvegicus, UniProt P14842).
T1 construct: Crude synaptosome fractions prepared from some brain regions in rats were used as the receptor sources; from tissue
The experiment in a line: Serotonin (S2) receptor binding assay, [3H] ketanserin. Also noted: species or system rats. The settings on record: rat brain crude synaptosome fractions. Here is the method:
(§1) Effect of binding to dopamine (D2), serotonin (S1, S2) and adrenaline (α1) receptor (in vitro receptor binding assay):
(§2) Dopamine (D2), serotonin (S1, S2) and adrenaline (α1) receptor binding assays were carried out according to the methods of I. Creese et al. [Eur. J. Pharmacol., 46, 377 (1977)], S. J. Peroutka et al. [Mol. Pharmacol., 16, 687 (1979)], J. E. Leysen et al. [Mol. Pharmacol., 21, 301 (1982)], and D. C. U'Prichard et al. [Mol. Pharmacol., 13, 454 (1977)], respectively.
(§3) Crude synaptosome fractions prepared from some brain regions in rats were used as the receptor sources, and [^3 H] spiperone (D2), [^3 H] serotonin (S1), [^3 H] ketanserin (S2) and [^3 H] WB-4101 (α1) were used as the labelled ligands. The binding assay was performed by incubating aliquots of synaptosome fraction in buffer solution (final volume 1 ml) containing the receptor source and the labelled ligand in the presence of a test compound having various concentration thereof for a fixed time. The assay was terminated by rapid filtration through Whatman GF/B glass fiber filters attached to a cell-harvester (Brandel) and radioactivity on the filters was counted with a scintillation counter. Specific binding was calculated as a difference between the amount of radioactivity in the assay group and that in the control group which was separately measured likewise in the presence of an excess amount of an unlabelled ligand [spiperone (D2), serotonin (S1), methysergide (S2) and prazosin (α1)] instead of […]. The IC50 value of the test compounds (i.e. the concentration causing 50% inhibition of the labelled ligand specific binding) was determined by probit analysis.

The subject of data set [5] is scopolamine-induced deficit of spontaneous alternation behavior. The data set can be described thus: Improving effect on scopolamine-induced deficit of spontaneous alternation behavior (T-maze). The settings on record: scopolamine hydrobromide 1 mg/kg, non-dosed mice=100%. It counts as in vivo, mice (Std-ddY strain). The text has this: Improving effect on scopolamine-induced deficit of spontaneous alternation behavior:
A group of 15-25 male mice (Std-ddY strain, 22-28 g) was used for evaluating effect of the test compounds on scopolamine-induced deficit of spontaneous alternation in a T-maze, which is a known animal model of memory impairment due to hypofunction of the cholinergic nervous system. The T-maze used consists of a stem and two arms which are 25 cm long, 5 cm wide and 10 cm high. The first 10 cm of the stem and last 10 cm of each arm are divided by sliding doors into start and goal boxes.
A test compound and scopolamine hydrobromide (1 mg/kg) were intraperitoneally administered to each mouse, and after 30 minutes a test of spontaneous alternation task in the T-maze was continuously repeated for 8 trials. Commonly, naive mice alternate each (right and left) goal box in turn, but scopolamine-treated animals tend to enter the same goal box repeatedly. The effect of the test compounds was expressed as % improvement (complete improvement to the alternation level of non-dosed mice=100%).

Data set [6] concerns mice. The experiment in a line: Acute toxicity. It counts as in vivo, mice (Std-ddY strain). Conditions: 200 mg/kg orally; 7 days observation; 5 male mice. On the procedure:
Experiment 8 Acute toxicity
A group of 5 male mice (Std-ddY strain, 25-30 g) was used. The test compound (200 mg/kg) was orally administered to the test animal in the form of a 0.5% tragacanth solution or suspension, and for 7 days after the administration of the test compound, the lethality of animals was observed.

Data set [7] relates to scopolamine-induced hypermotility. The data set can be described thus: Antagonistic effect on scopolamine-induced hypermotility. The data set is classed as in vivo, mice (Std-ddY strain). Conditions: Mus musculus, po, read-out: Inhibitory ratio (% antagonism of scopolamine-induced hypermotility). Here is the method:
Antagonistic effect on scopolamine-induced hypermotility:
A test compound was orally administered to each mouse, and 90 minutes after the administration, each one test animal was placed within a test cage (25×35×30 cm). After 30 minutes, scopolamine hydrobromide (1 mg/kg) was intraperitoneally administered to the mice and then the motility was measured with Animex activity meter for 30 minutes. The effect of test compounds was expressed as % antagonism (complete antagonism to the motility level of non-dosed animals=100%).

The target in data set [8] is adrenaline (α1) receptor. The data set can be described thus: Adrenaline (α1) receptor binding assay, [3H] WB-4101. Also noted: species or system rats. Conditions: rat brain crude synaptosome fractions. Here is the method: as §1, §2, §3
Data set [9] addresses T2, dopamine (D2) receptor (Rattus norvegicus, UniProt P61169).
T2 construct: Crude synaptosome fractions prepared from some brain regions in rats were used as the receptor sources; from tissue
The experiment in a line: Dopamine (D2) receptor binding assay, [3H] spiperone. Also noted: species or system rats. The settings on record: rat brain crude synaptosome fractions. On the procedure:
as §1, §2, §3

The test system of data set [10] is brain serotonin metabolite, 5-hydroxyindole-3-acetic acid (5-HIAA). The data set can be described thus: Increasing effect on concentration of brain serotonin metabolite (5-HIAA). It counts as in vivo, mice (Std-ddY strain). The settings on record: Mus musculus, 2 h, two hours after treatment, 5-HIAA level of non-dosed animals=100%. The source says:
Increasing effect on concentration of brain serotonin metabolite:
A group of 5 male mice (Std-ddY strain, 25-30 g) was used for examining effect of the test compounds on concentration of a brain serotonin metabolite, 5-hydroxyindole-3-acetic acid (5-HIAA).
Mice were killed by decapitation two hours after the treatment with the test compounds. Brains were quickly taken out, homogenized in 1N formic acid-acetone solution, and centrifuged in a refrigerated ultracentrifuge. The supernatant was evaporated by blowing with N2 gas, and then, the residue was again dissolved in 0.01N acetic acid, and served for determining 5-HIAA concentration by high performance liquid chromatography with electrochemical detection. The effect of the test compounds on 5-HIAA concentration was shown as % of control (5-HIAA level of non-dosed animals=100%).

Data set [11] addresses serotonin (S1) receptor. The experiment in a line: Serotonin (S1) receptor binding assay, [3H] serotonin. Also noted: species or system rats. The settings on record: rat brain crude synaptosome fractions. Here is the method:
as §1, §2, §3

Data set [12] concerns reserpine-induced hypothermia. The data set can be described thus: Anti-reserpine effect (reserpine-induced hypothermia). The data set is classed as in vivo, mice (Std-ddY strain). Conditions: 100 mg/kg orally; reserpine 5 mg/kg s.c.; rectal temperature at 4 hours; complete inhibition=100%. On the procedure:
A group of 5 male mice (Std-ddY strain, 22-25 g) was used for examining the antagonistic effect of the test compounds on reserpine-induced hypothermia, which is known as a screening method for the antidepressant drug.
Reserpine (5 mg/kg) was subcutaneously administered to the mice and further a test compound was orally administered thereto. Four hours after the administration, rectal temperature of the mice was measured. The effect of the test compounds was estimated by % inhibition (complete inhibition to the hypothermia by reserpine in non-dosed animals=100%).

Setting [13] is: 30 mg/kg, orally, scopolamine hydrobromide 1 mg/kg i.p., complete antagonism to motility level of non-dosed animals=100%.

T1 sequence (P14842 whole entry): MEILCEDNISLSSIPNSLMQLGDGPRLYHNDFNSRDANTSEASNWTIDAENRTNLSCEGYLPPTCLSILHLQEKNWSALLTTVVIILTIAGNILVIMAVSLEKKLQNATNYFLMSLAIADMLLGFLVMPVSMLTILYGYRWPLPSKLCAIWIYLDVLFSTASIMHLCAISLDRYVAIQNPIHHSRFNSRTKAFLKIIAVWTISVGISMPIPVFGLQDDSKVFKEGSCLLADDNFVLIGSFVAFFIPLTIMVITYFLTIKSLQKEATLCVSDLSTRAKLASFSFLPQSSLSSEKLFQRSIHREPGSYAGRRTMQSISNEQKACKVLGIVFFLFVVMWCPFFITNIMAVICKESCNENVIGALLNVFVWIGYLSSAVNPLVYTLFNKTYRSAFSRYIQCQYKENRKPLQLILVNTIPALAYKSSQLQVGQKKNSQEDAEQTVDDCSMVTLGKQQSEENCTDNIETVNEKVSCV
T2 sequence (P61169 whole entry): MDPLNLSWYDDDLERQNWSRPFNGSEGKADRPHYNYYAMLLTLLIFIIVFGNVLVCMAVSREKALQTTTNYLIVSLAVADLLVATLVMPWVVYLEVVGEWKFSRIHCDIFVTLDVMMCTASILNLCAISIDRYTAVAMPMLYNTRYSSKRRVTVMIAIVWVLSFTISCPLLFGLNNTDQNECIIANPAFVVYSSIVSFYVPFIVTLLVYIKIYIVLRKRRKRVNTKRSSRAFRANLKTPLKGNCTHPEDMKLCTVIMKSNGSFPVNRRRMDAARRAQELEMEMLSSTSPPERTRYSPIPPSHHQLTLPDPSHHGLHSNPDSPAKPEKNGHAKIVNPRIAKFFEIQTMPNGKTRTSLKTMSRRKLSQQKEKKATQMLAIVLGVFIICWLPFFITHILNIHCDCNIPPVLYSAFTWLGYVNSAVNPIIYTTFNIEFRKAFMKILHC

Consider `c1ccc(-c2nc(N3CCNCC3)nc3c2CCCC3)cc1` [4-phenyl-2-(1-piperazinyl)-5,6,7,8-tetrahydroquinazoline], for which the Hypoglycemic activity entry in data set [1] is reported as “weak hypoglycemic activity”.

For `c1ccc(CN2CCN(c3nc4c(c(-c5ccccc5)n3)CCCC4)CC2)cc1` [4-phenyl-2-(4-benzyl-1-piperazinyl)-5,6,7,8-tetrahydroquinazoline], the Hypoglycemic activity entry in [1] was “weak hypoglycemic activity”.

Turning to `CN1CCN(c2nc3c(c(-c4ccccc4)n2)CCCCC3)CC1` [6,7,8,9-tetrahydro-2-(4-methyl-1-piperazinyl)-4-phenyl-5H-cyclohepta[d]pyrimidine], in data set [2], the Anti-inflammatory activity result is “have anti-inflammatory activity”.

Turning to `CN1CCN(c2nc3c(c(-c4ccccc4)n2)CCC3)CC1` [6,7-dihydro-2-(4-methyl-1-piperazinyl)-4-phenyl-5H-cyclopenta[d]pyrimidine], the Anti-inflammatory activity result in [2] is on record as “have anti-inflammatory activity”.

As for `Fc1ccc(-c2nc(N3CCNCC3)nc3c2CCCCC3)cc1` [Ex. 2, 2-(1-piperazinyl)-4-(4-fluorophenyl)-6,7,8,9-tetrahydro-5H-cycloheptapyrimidine], the “Improvement of cycloheximide-induced amnesia (step-down latency)” value (from here on “Improvement … (step-down latency)”) in [3] (0.5 mg/kg i.p.) was 93.7%; in data set [3] (2.0 mg/kg i.p.) it was 72.8%. Also, the IC50 in data set [4] worked out at 0.0096 µM; in [8], 3.4 µM; in data set [9], 0.75 µM; in [11], 3 µM. Moreover, the “Improvement of scopolamine-induced deficit of spontaneous alternation” value (“Improvement … of spontaneous alternation” below) in data set [5] (2.0 mg/kg i.p.) turned out to be 39.1%. In [6], the Lethality of animals result was “no animal was died”. Also, the inhibition in vivo at 30 mg/kg in data set [7] was found to be 69.2%. Besides, the response vs control in vivo at 100 mg/kg in data set [10] turned out to be 135%.

On to `c1ccc(-c2nc(N3CCNCC3)nc3c2CCCCC3)cc1` [Ex. 7, 2-(1-Piperazinyl)-4-phenyl-6,7,8,9-tetrahydro-5H-cycloheptapyrimidine], for which the “Improvement … (step-down latency)” value in data set [3] (0.5 mg/kg i.p.) turned out to be 70.4%. Besides, the IC50 in data set [4] was found to be 0.038 µM; in [9], 2 µM. Further, the “Improvement … of spontaneous alternation” value in [5] (10.0 mg/kg i.p.) is 44.0%. In [7] (setting [13]), the inhibition in vivo at 30 mg/kg was found to be 78.2%.

Take `c1ccc(-c2nc(N3CCNCC3)nc3c2CCCCCC3)cc1` [Ex. 9, 2-(1-Piperazinyl)-4-phenyl-5,6,7,8,9,10-hexahydrocyclooctapyrimidine]: the “Improvement … (step-down latency)” value in data set [3] (0.5 mg/kg i.p.) was 85.8%. Moreover, the “Improvement … of spontaneous alternation” value in [5] (2.0 mg/kg i.p.) stood at 36.7%. In addition, in data set [6], the Lethality of animals result is on record as “no animal was died”. The inhibition in vivo at 10 mg/kg in data set [7] (10 mg/kg, orally, scopolamine hydrobromide 1 mg/kg i.p., complete antagonism to motility level of non-dosed animals=100%) stood at 60.4%.

For `Fc1ccc(-c2nc(N3CCNCC3)nc3c2CCCCCC3)cc1` [Ex. 10, 2-(1-Piperazinyl)-4-(4-fluorophenyl)-5,6,7,8,9,10-hexahydrocyclooctapyrimidine], in [3] (0.5 mg/kg i.p.), the “Improvement … (step-down latency)” value was 67.1%. For the same compound, the IC50 in data set [4] came out at 0.019 µM; in [8], 1.2 µM; in data set [9], 0.13 µM; in [11], 1.3 µM. Further, in data set [5] (2.0 mg/kg i.p.), the “Improvement … of spontaneous alternation” value was determined as 63.0%. Moreover, in data set [7], the inhibition in vivo at 3 mg/kg amounted to 50.6%.

As to `CN1CCN(c2nc3c(c(-c4ccc(F)cc4)n2)CCCC3)CC1` [Ex. 28], the IC50 in data set [4] came to 0.087 µM; in [9], 0.35 µM. For the same compound, the “Inhibitory ratio (% inhibition of reserpine-induced hypothermia)” value in data set [12] was 37%. Besides, the inhibition in vivo at 30 mg/kg in [7] (setting [13]) stood at 96.4%. In addition, in data set [10], the response vs control in vivo at 100 mg/kg amounted to 156%.

As a reminder, the IC50 is the concentration at which inhibition is half-maximal.
